The values that follow come from publication PMC11187573, “Identification of SARS-CoV-2 Mpro inhibitors through deep reinforcement learning for de novo drug design and computational chemistry approaches” (RSC Medicinal Chemistry, 2024).

The subject of experiment [1] is trypsin. Details: method as in COVID Moonshot. Conditions: Docking_validation.csv; ref COVID Moonshot; read-out: trypsin_IC50; cited from earlier work.
In experiment [2] the target is recombinant SARS-CoV-2 main protease Mpro (Severe acute respiratory syndrome coronavirus 2, UniProt P0DTC1). Nature of the experiment: FRET-based Mpro proteolytic activity assay. Format: biochemical. Conditions: for IC50: Mpro FRET (1 μM DTT).
The subject of experiment [3] is SARS-CoV-2 main protease. Format: biochemical. Conditions: Docking validation set, class assigned from COVID Moonshot IC50.
For experiment [4], the system named is SARS-CoV-2 main protease. Conditions: Docking_validation.csv; ref COVID Moonshot; read-out: f_avg_IC50; cited from earlier work.
The test system of experiment [5] is SARS, SARS-CoV-2 and MERS Mpro. Conditions: Origin COVID_Moonshot; ref COVID Moonshot; cited from earlier work.
For experiment [6], the system named is Mpro. Conditions: ML dataset, Origin COVID_Moonshot; ref COVID Moonshot; cited from earlier work.
The target of experiment [7] is human Cathepsin L (Homo sapiens, UniProt P07711). Nature of the experiment: Fluorimetric human liver Cathepsin L (hCatL) activity assay. Format: biochemical. Conditions: reference inhibitor.
Experiment [8] relates to host–cell proteases, such as cathepsin L. Details: method as in PMID 34726479, PMID 35352927, PMID 33158912. Conditions: cited from earlier work.

Chain of human Cathepsin L (P07711 114-333 limits assumed): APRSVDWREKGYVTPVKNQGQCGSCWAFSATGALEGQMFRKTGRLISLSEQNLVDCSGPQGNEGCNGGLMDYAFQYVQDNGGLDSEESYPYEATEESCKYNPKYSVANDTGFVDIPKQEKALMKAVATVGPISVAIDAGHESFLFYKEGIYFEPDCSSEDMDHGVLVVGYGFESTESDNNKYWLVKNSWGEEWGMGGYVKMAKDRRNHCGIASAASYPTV

Take `O=C(Oc1cncc(Cl)c1)c1cccc2[nH]ccc12` [ALP-POS-c59291d4-5, O=C(Oc1cncc(Cl)c1)c1cccc2[nH]ccc12]: in experiment [1], the IC50 is 99 µM.
In the case of `Cc1cncc(CC(=O)N2CCC[C@H]2c2cccc(Cl)c2)c1` [Compound 7, (S)-1-(2-(3-chlorophenyl)pyrrolidin-1-yl)-2-(5-methylpyridin-3-yl)ethan-1-one], the IC50 in experiment [2] came out at 5.6 µM.
In the case of `Cc1cncc(CC(=O)N2CCc3cc(Cl)c(Cl)cc3C2)c1` [Compound 12, 1-(6,7-dichloro-3,4-dihydroisoquinolin-2(1H)-yl)-2-(5-methylpyridin-3-yl)ethan-1-one], the IC50 in experiment [2] amounted to 2.3 µM. Further, the “fold improvement of Mpro FRET IC50 after first round of optimization” value in experiment [2] (relative to the parent hit (compound 8 or 10)) was 27 fold.
For the compound `CCn1cncc1NC(=O)C1c2cc(Cl)cc(Cl)c2OCC1C` (stereo not shown) [Compound 21, 6,8-dichloro-N-(1-ethyl-1H-imidazol-5-yl)-3-methylchromane-4-carboxamide], in experiment [2], the IC50 worked out at 66.9 µM.
Turning to `O=C(Cc1cccc(Cl)c1)Nn1cnc2ccccc2c1=O` [JAN-GHE-5a013bed-3, O=C(Cc1cccc(Cl)c1)Nn1cnc2ccccc2c1=O], in experiment [3], the “label (active / inactive)” value was “inactive”. Also, the IC50 is 8.65 µM in experiment [4] and 99 µM in experiment [1].
With `O=S(=O)(Cc1ccccc1F)c1oc(-c2ccc(F)cc2)nc1S(=O)(=O)c1ccccc1` [LON-WEI-4d77710c-2, O=S(=O)(Cc1ccccc1F)c1oc(-c2ccc(F)cc2)nc1S(=O)(=O)c1ccccc1], the IC50 was 0.397 µM in experiment [4], 0.397 µM in experiment [5] and 0.248 µM in experiment [6].
`CCOC(=O)c1c(C)n(S(C)(=O)=O)c2ccc(N(C(=O)c3ccco3)S(C)(=O)=O)cc12` [LON-WEI-4d77710c-8, CCOC(=O)c1c(C)n(S(C)(=O)=O)c2ccc(N(C(=O)c3ccco3)S(C)(=O)=O)cc12]: the figures for the IC50 in experiment [4], in experiment [5] and in experiment [6] were 0.282 µM, 0.282 µM and 0.214 µM, respectively.
Turning to `N#Cc1cnn(C(=O)c2cccs2)c1C1CC1` [LON-WEI-4d77710c-70, N#Cc1cnn(C(=O)c2cccs2)c1C1CC1], the IC50 is 3.24 µM in experiment [4], 3.24 µM in experiment [5] and 1.8 µM in experiment [6].
Regarding `c1ccc(-c2cc(Sc3nnc(-c4cccs4)o3)n3ncnc3n2)cc1` [LON-WEI-4d77710c-76, c1ccc(-c2cc(Sc3nnc(-c4cccs4)o3)n3ncnc3n2)cc1], the IC50 was 0.221 µM in experiment [4], 0.221 µM in experiment [5] and 0.187 µM in experiment [6].
In experiment [7], `CC(=O)N[C@@H](CC(C)C)C(=O)N[C@@H](CC(C)C)C(=O)N[C@H](C=O)CCCNC(=N)N` [Leupeptin] came in with an IC50 of roughly 0.002 µM.
As for `O=C(Nc1cncc2ccccc12)C1=CCCc2ccc(Cl)cc21` [MAT-POS-0c8fa4a7-1, O=C(Nc1cncc2ccccc12)C1=CCCc2ccc(Cl)cc21], the IC50 is 0.233 µM in experiment [4], 0.233 µM in experiment [5] and 0.157 µM in experiment [6].
Take `O=C1CC(Oc2cc(Cl)cc(CC(=O)Nn3cnc4ccccc43)c2)N1` (stereo not shown) [MAT-POS-c478e61b-1, O=C1CC(Oc2cc(Cl)cc(CC(=O)Nn3cnc4ccccc43)c2)N1]: in experiment [3], the “label (active / inactive)” value is “inactive”. For the same compound, the IC50 in experiment [4] is 82.1 µM; in experiment [6] it was 90.6 µM.
For the compound `O=C(Nc1cncc2ccccc12)C1COc2ccc(Cl)cc21` (stereo not shown) [MAT-POS-f7918075-2, O=C(Nc1cncc2ccccc12)C1COc2ccc(Cl)cc21], the IC50 is 0.764 µM in experiment [4] and 2.6 µM in experiment [5].
Regarding `Cc1ccncc1NC(=O)Cc1cncc(Cl)c1` [TRY-UNI-2eddb1ff-2, Cc1ccncc1NC(=O)Cc1cncc(Cl)c1], the “label (active / inactive)” value in experiment [3] is “inactive”. The IC50 in experiment [4] is 46.4 µM; in experiment [1], 99 µM.
For the compound `Cn1cnc(Cn2c(=O)[nH]/c(=N\c3cc4cn(C)nc4cc3Cl)n(Cc3cc(F)c(F)cc3F)c2=O)n1` [ensitrelvir], the “inhibitory activity against host–cell proteases, such as cathepsin L” value in experiment [8] is reported as “no inhibitory activity”.
Take Nirmatrelvir–ritonavir: the “inhibitory activity against host–cell proteases, such as cathepsin L” value in experiment [8] is “no inhibitory activity”.
